For one assay, the system named is HepG2 cells. Put plainly: Cell viability (WST-1 assay), HepG2 cells. It is filed as cell-based. The following applies: Homo sapiens. On the procedure:
(§1) Human liver cancer cells of Hep3B, Huh7, HepG2 and PLC/PRF5 were cultured in DMEM supplemented with 10% FBS, 100 U/ml penicillin and 100 μg/ml streptomycin.
(§2) A lentiviral construct expressing STAT1 shRNA, p65 shRNA and LCN2 shRNA was purchased from Sigma-Aldrich. Wild-type SULF2, SULF2-N491K, wild-type ERC1, ERC1-H721Q, wild-type NTRK3, NTRK3-N522K, wild-type SHC1 and SHC1-SHC1-P55 cDNA constructs were cloned into MCS-EF1-Puro (System Biosciences, Mountain), the lentiviral vectors for cDNA expression. All lentiviral vectors were transfected into 293 TN cells (System Biosciences) using the Lipofectamine 3000 transfection reagent (Invitrogen, Waltham, Mass., USA). Two days after lentiviral plasmid transfection, particles were collected and used to infect HCC cells. The HDD cells infected with lentivirus were selected using puromycin for 1 week.
(§3) For cell proliferation analysis, 5×10^3 cells were divided into 96-well plates and cultured in DMEM containing various concentrations of anti-cancer drugs and 5% FBS for 48 hours. Cell viability was measured through WST-1 assay (Roche, Gangnam-gu, Seoul, Korea) and four repetitions of each experiment were performed at least 3 times. Cell migration analysis was performed in a 24-well Boyden chamber (8 μm pore size; Coastal; Corning Life Sciences, Lowell, Mass.), 1×10^5 cells were suspended in serum-free 0.2 ml DMEM and added to the upper chamber inlet, and the lower chamber was filled with 0.6 ml DMEM/10% fetal bovine serum. After 6 hours, the cells on the bottom of the membrane were fixed, stained and counted at ×200 magnification with four microscopes.

The next assay deals with LCN2 mRNA. Put plainly: LCN2 mRNA expression by qRT-PCR in Hep3B vector, SULF2-WT and SULF2-N491K cells. It is filed as cell-based, Human. On the procedure:
(§4) Each cell was collected using an RNeasy kit (Qiagen, Venlo, Netherlands) and total RNA was isolated. The mRNA was reverse-transcribed into cDNA using a PrimeScript RT kit (Takara, Shiga, Japan), and then PCR was conducted using the CFX96 Real-Time PCR Detection System (Bio-Rad Laboratories, Hercules, Calif., USA) equipped with SsoAdvanced Universal Supermixes (Bio-Rad). The analysis of each sample was run at least three times for each experiment, and the data for the number was reported in a relative quantity: Mean value (standard deviation) of 2^−ΔΔCT±S.D.
(In general: Real-time PCR tracks product formation cycle by cycle.)

For another assay, the system named is Huh7 cells. Put plainly: Cell viability (WST-1 assay), Huh7 cells. It is filed as cell-based, Human. On the procedure: as §1, §2, §3
Background: Tetrazolium dyes change colour on reduction, which living cells bring about.

Assay [1] concerns Hep3B cells. Description: Cell viability / proliferation (WST-1 assay), Hep3B cells expressing vector, SULF2-WT or SULF2-N491K. Format: cell-based, Human. The following applies: for cell proliferation: 0.01-10 μM. On the procedure:
as §1, §2
Then, in order to identify whether or not the SULF2 mutation changed drug susceptibility, an overexpression system for wild-type SULF2 and SULF2-N491K mutants in Hep3B cells that rarely expressed endogenous SULF2 was established (Lai J P et al., Hepatology 47: 1211-22, 2008).
as §3

The test system of a further assay is amphiregulin mRNA. Put plainly: Amphiregulin mRNA level by qRT-PCR in Hep3B vector, SULF2-WT and SULF2-N491K cells. It is filed as cell-based, Human. The following applies: 2 μM sorafenib, 72 hours. On the procedure:
as §4

The next assay relates to SULF2 mRNA. Put plainly: SULF2 mRNA expression by qRT-PCR in HepG2 and Huh7 cells. It is filed as cell-based, Human. The following applies: sorafenib up to 10 μM for 1, 2, 4 and 12 weeks. On the procedure: as §4
Assay [2] relates to Hep3B-SR, SULF2-WT-SR, HepG2-SR and Huh7-SR cells. Put plainly: Cell viability of sorafenib-resistant (SR) liver cancer cells. Format: cell-based, Human. The note with it: LCN2 siRNA 24 hours, then 5 μM sorafenib 48 hours. On the procedure:
as §3
After culture for several months, the sorafenib-resistant (SR) cell lines, Vector-SR, SULF2-WT-SR and SULF2-N491K-SR were obtained.
Thus, control siRNA and siRNA for human LCN2 were purchased from Santa Cruz Biotechnology, and each cell was transfected with siRNA using a transfection reagent (Santa Cruz) according to the manufacturer's instructions.

For assay [3], the system named is Hep3B cells. Put plainly: Transwell (Boyden chamber) cell migration assay, Hep3B cells. It is filed as cell-based, Human. On the procedure: as §3
The subject of the next assay is EGFR. Put plainly: Western blotting of EGFR downstream signaling after amphiregulin treatment. Format: cell-based, Human. The following applies: SULF2-WT cells, amphiregulin 50 ng/ml. On the procedure:
In order to prepare total cell lysate, cells were lysed in a high-salt-content lysis buffer (20 mM Tris-HCl [pH 8.0], 1% Triton X-100, 2 mM EDTA and 1 mM phenylmethylsulfonyl fluoride), incubated on ice for 20 minutes, and centrifuged for 20 minutes to remove cell debris. A total of 20 μg of total cell lysate was used for SDS-polyacrylamide gel electrophoresis, and proteins were transferred to a nitrocellulose membrane and incubated overnight with each antibody at 4° C. The membrane was then incubated at room temperature for 1 hour with a peroxidase-conjugated secondary antibody (PIERCE, Rockford, Ill., USA), and signals were detected using a chemiluminescence detection kit (PIERCE).
Thus, in order to elucidate the mechanism by which sorafenib-mediated EGFR activation is differentially regulated between SULF2-WT and SULF2-N491K, the effect of exogenous stimulation of EGFR by treatment with recombinant human amphiregulin (rhAR) on three types of cells was compared.
(In western blotting, separated proteins are transferred to a membrane and probed.)

Here are results for seven molecules from patent US11510911B2 (AJOU UNIVERSITY INDUSTRY—ACADEMIC COOPERATION FOUNDATION, priority 2017, dated 2022).

With `CNC(=O)c1cc(Oc2ccc(NC(=O)Nc3ccc(Cl)c(C(F)(F)F)c3)cc2)ccn1` [Sorafenib], the IC50 in the assay with HepG2 cells (HepG2, HepG2 cells, NT shRNA) was 4.97 µM; in the assay on HepG2 cells (HepG2, HepG2 cells, SULF2 knockdown (SULF2 shRNA)) it was 2.38 µM; in the assay on HepG2 cells (HepG2, HepG2 cells, sorafenib in combination with OKN-007), 1.76 µM; in the assay with Huh7 cells (Homo sapiens, Huh-7, 48 h, Huh7 cells, NT shRNA, 48 hours), 10.2 µM; in the assay on Huh7 cells (Homo sapiens, Huh-7, 48 h, Huh7 cells, SULF2 knockdown (SULF2 shRNA), 48 hours), 6.17 µM; in the assay on Huh7 cells (Homo sapiens, Huh-7, Huh7 cells expressing NTRK3-N522K), 5.8 µM. The IC50 with Huh7 cells (Homo sapiens, Huh-7, Huh7 cells expressing NTRK3-WT) worked out at 7.64 µM; in the assay on Huh7 cells (Homo sapiens, Huh-7, Huh7 cells, sorafenib in combination with 200 μM OKN-007), 5.06 µM; with Hep3B cells [1] (Hep3B-SULF2-WT cells), 7.51 µM; in the assay with Hep3B cells [1] (Homo sapiens, Hep3B, 48 h, Hep3B cells expressing wild-type SULF2, sorafenib in combination with OKN-007, 48 hours), 3.17 µM; in the assay with Hep3B cells [1] (Homo sapiens, Hep3B, 48 h, SULF2-WT cells with knockdown of LCN2 by shRNA), 3.95 µM; in the assay with Hep3B cells [1] (Homo sapiens, Hep3B, Hep3B cells expressing SULF2-N491K), 3.54 µM. Also, the IC50 turned out to be 7.51 µM in the assay on Hep3B cells [1] (Homo sapiens, Hep3B, Hep3B-SULF2-WT cells) and 3.37 µM with Hep3B cells [1] (Homo sapiens, Hep3B, Hep3B-vector cells). In addition, the “LCN2 mRNA expression” value was “significantly induced” with LCN2 mRNA (SULF2-WT cells, 2 μM sorafenib, 72 hours); “induced only a small amount” in the assay on LCN2 mRNA (vector and SULF2-N491K cells, 2 μM sorafenib, 72 hours). Also, the “susceptibility to sorafenib with OKN-007 treatment” value in the assay with Hep3B cells [1] (Hep3B vector and SULF2-N491K cells, 48 hours) is “did not change”. Moreover, the amphiregulin expression result in the assay on amphiregulin mRNA is “significantly increased”. In addition, in the assay with SULF2 mRNA, the “SULF2 mRNA expression” value is “significantly increased in a time-dependent manner”. Further, the “sorafenib susceptibility after LCN2 knockdown” value in [2] was “restoration of sorafenib susceptibility”.

As for `CCN(CC)CCCCNc1ncc2cc(-c3cc(OC)cc(OC)c3)c(NC(=O)NC(C)(C)C)nc2n1` [PD173074], the cell proliferation result is listed as “did not inhibit” in the assay with Hep3B cells [1] (SULF2-WT cells, 48 hours); “inhibited cell proliferation” in the assay with Hep3B cells [1] (vector and SULF2-N491K cells, 48 hours). Moreover, the cell migration result with Hep3B cells [3] (vector, SULF2-WT or SULF2-N491K cells treated with PD173074) is “inhibition of great migration was not found”.

Consider `CN[C@@H](C)C(=O)N[C@H](C(=O)N1CC[C@H]2CCN(CCc3ccccc3)C[C@H]21)C1CCCCC1` [LBW242], for which the figures for the IC50 in the assay with Huh7 cells (Huh7 cells expressing SHC1-P5S) and in the assay with Huh7 cells (Huh7 cells expressing SHC1-WT) were 2.26 µM and 4.26 µM, respectively.

On to `Nc1ncnc2c1c(-c1cccc(OCc3ccccc3)c1)cn2[C@H]1C[C@@H](CN2CCC2)C1` [AEW541], for which the IC50 with HepG2 cells (HepG2, HepG2 cells expressing ERC1-H721Q) amounted to 2.63 µM; with HepG2 cells (HepG2, HepG2 cells expressing ERC1-WT) it was 4.25 µM.

Turning to `COc1cc2ncnc(Nc3ccc(F)c(Cl)c3)c2cc1OCCCN1CCOCC1` [gefitinib], in the assay with LCN2 mRNA (SULF2-WT cells, 48 hours, OKN-007 200 μM, gefitinib 5 μM), the “LCN2 mRNA expression” value is “significantly inhibited”. The cell growth result with Hep3B cells [1] (SULF2-WT cells compared with vector and SULF2-N491K cells, 48 hours) was “significantly inhibited”. The cell migration result in the assay on Hep3B cells [3] (SULF2-WT cells compared with vector and SULF2-N491K cells) was “significantly inhibited”.

Take `N#CC(=C(/N)Sc1ccccc1N)/C(C#N)=C(/N)Sc1ccccc1N` [MEK inhibitor]: the LCN2 expression result with LCN2 mRNA (vector or SULF2-N491K cells, U0126 10 μM, 48 hours) is on record as “did not inhibit”.

B1: amphiregulin: recombinant human amphiregulin, the EGFR ligand, from R & D systems (protein, UniProt P15514 101-187, looked up)
Amphiregulin: SVRVEQVVKPPQNKTESENTSDKPKRKKKGGKNGKNRRNRKKKNPCNAEFQNFCIHGECKYIEHLEAVTCKCQQEYFGERCGEKSMK
Turning to B1, in the assay with EGFR, the “activation of EGFR and downstream signaling pathways including STAT1 and ERK” value is “elevated activation”; the “p65 and LCN2 protein levels” value is recorded as “significantly increased”.

Broadly, the IC50 is the concentration that inhibits the measured activity by half.
